US9399646B2 (Genentech, Inc., priority 2010, dated 2016)

What was measured:
MCF-7 cells = assay: Breast cancer cell viability assay (CellTiter-Glo, 5 days); type: cell-based; settings: 5 days' compound exposure; for IC50: Homo sapiens, MCF7, 120 h
Summary of the method: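 Eleven-point semilog compound series, final 0.3-0.000003 μM, added to overnight-adhered MCF-7 cells (320/well; RPMI, 10% FBS, 20 mM HEPES) for 5 days. Viability read by CellTiter-Glo luminescence, background from medium without cells subtracted, expressed relative to untreated cells.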

ER-α in MCF-7 cells = target: T1, ER-α in MCF-7 cells (Homo sapiens, UniProt P03372); assay: Breast cancer cell ER-α in cell western assay (SP1); type: cell-based; design: endogenous in cells; host or cells: MCF-7; settings: 4 or 24 hr post compound addition; for Emax: MCF7, SP1 antibody, read-out: ER-α In Cell Western Assay (SP1) Max Response; for DC50: SP1 antibody, read-out: ER-α In Cell Western Assay (SP1) IC50
T1 sequence (P03372 1-595): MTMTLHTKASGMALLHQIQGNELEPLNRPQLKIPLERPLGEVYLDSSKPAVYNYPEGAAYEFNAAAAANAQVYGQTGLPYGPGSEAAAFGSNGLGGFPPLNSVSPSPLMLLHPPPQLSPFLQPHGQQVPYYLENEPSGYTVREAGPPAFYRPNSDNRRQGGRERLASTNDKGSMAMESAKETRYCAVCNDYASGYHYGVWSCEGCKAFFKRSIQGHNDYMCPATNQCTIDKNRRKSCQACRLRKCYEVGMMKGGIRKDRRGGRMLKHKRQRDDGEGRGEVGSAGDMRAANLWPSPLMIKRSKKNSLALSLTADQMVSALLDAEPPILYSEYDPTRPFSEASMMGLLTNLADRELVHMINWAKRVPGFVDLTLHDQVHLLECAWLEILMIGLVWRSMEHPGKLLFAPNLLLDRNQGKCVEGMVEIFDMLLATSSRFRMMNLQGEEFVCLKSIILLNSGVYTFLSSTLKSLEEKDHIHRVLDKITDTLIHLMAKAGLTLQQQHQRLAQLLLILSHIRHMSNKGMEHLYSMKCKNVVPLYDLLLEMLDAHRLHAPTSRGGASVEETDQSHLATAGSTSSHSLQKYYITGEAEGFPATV
Summary of the method: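 MCF-7, charcoal-stripped FBS/RPMI, 3200 cells/well, adhered overnight. Formalin fix, SP1 Ab o/n 4 °C, IRDye 800CW + DRAQ5; % ER = 800/700 ratio vs untreated.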

SMILES | MCF7 Viability Assay Max Response (MCF-7 cells) | IC50 (MCF-7 cells) [nM] | Emax (ER-α in MCF-7 cells) [%] | DC50 (ER-α in MCF-7 cells) [nM]
CC/C(=C(/c1ccc(/C=C/C(=O)O)cc1)c1ccc2[nH]ncc2c1)c1cccc(OCCCC(=O)O)c1 [Compound 351, 4-(3-((E)-1-(4-((E)-2-Carboxyvinyl)phenyl)-1-(1H-indazol-5-yl)but-1-en-2-yl)phenoxy)butanoic acid] | + (+ = a single % value < 40%) | > 100 | ≥ 40 | > 100
CC/C(=C(/c1ccc(/C=C/C(=O)O)cc1)c1ccc2[nH]ncc2c1F)c1ccc(Oc2cnccn2)cc1 [Compound 161, (E)-3-(4-((E)-1-(4-Fluoro-1H-indazol-5-yl)-2-(4-(pyrazin-2-yloxy)phenyl)but-1-en-1-yl)phenyl)acrylic acid] | ++ (++ = a single % value ≧ 40%) | ≤ 100 | ≥ 40 | ≤ 100
CC/C(=C(/c1ccc(/C=C/C(=O)O)cc1)c1ccn2cnnc2c1)c1ccccc1 [Compound 134, (E)-3-(4-((E)-1-([1,2,4]Triazolo[4,3-a]pyridin-7-yl)-2-phenylbut-1-en-1-yl)phenyl)acrylic acid] | + (+ = a single % value < 40%) | > 100 | < 40 | > 100
CC/C(=C(/c1ccc(/C=C/C(=O)O)cc1)c1ccc2c(c1)C(=O)NC2)c1ccccc1 [Compound 104, (E)-3-(4-((E)-1-(3-Oxoisoindolin-5-yl)-2-phenylbut-1-en-1-yl)phenyl)acrylic acid] | ++ (++ = a single % value ≧ 40%) | > 100 | ≥ 40 | > 100
CC/C(=C(/c1ccc(/C=C/C(=O)O)cc1)c1ccn2nncc2c1)c1ccccc1 [Compound 138, (E)-3-(4-((E)-1-([1,2,3]Triazolo[1,5-a]pyridin-5-yl)-2-phenylbut-1-en-1-yl)phenyl)acrylic acid] | + (+ = a single % value < 40%) | > 100 | ≥ 40 | > 100
CC/C(=C(/c1ccc(/C=C/C(=O)O)cc1)c1ccc2[nH]ncc2c1)c1ccc2c(c1)N(C)C(=O)CO2 [Compound 262, (E)-3-(4-((E)-1-(1H-Indazol-5-yl)-2-(4-methyl-3-oxo-3,4-dihydro-2H-benzo[b][1,4]oxazin-6-yl)but-1-en-1-yl)phenyl)acrylic acid] | ++ (++ = a single % value ≧ 40%) | > 100 | ≥ 40 | > 100
CC/C(=C(/c1ccc(/C=C/C(=O)O)cc1)c1ccc2[nH]ncc2c1)c1ccc2nccnc2c1 [Compound 266, (E)-3-(4-((E)-1-(1H-Indazol-5-yl)-2-(quinoxalin-6-yl)but-1-en-1-yl)phenyl)acrylic acid] | ++ (++ = a single % value ≧ 40%) | ≤ 100 | ≥ 40 | ≤ 100
CC/C(=C(/c1ccc(/C=C/C(=O)O)cc1)c1ccc2[nH]ncc2c1)c1cccc(Oc2ccccc2)c1 [Compound 261, (E)-3-(4-((E)-1-(1H-Indazol-5-yl)-2-(3-phenoxyphenyl)but-1-en-1-yl)phenyl)acrylic acid] | ++ (++ = a single % value ≧ 40%) | ≤ 100 | ≥ 40 | ≤ 100
O=C(O)/C=C/c1ccc(/C(=C(\c2ccncc2Cl)C2CCC2)c2ccc3[nH]ncc3c2)cc1 [Compound 305, (E)-3-(4-((E)-2-(3-Chloropyridin-4-yl)-2-cyclobutyl-1-(1H-indazol-5-yl)vinyl)phenyl)acrylic acid] | ++ (++ = a single % value ≧ 40%) | ≤ 100 | ≥ 40 | ≤ 100
CC/C(=C(/c1ccc(/C=C/C(=O)O)cc1)c1ccc2c(c1)CNC2=O)c1ccccc1 [Compound 110, (E)-3-(4-((E)-1-(1-Oxoisoindolin-5-yl)-2-phenylbut-1-en-1-yl)phenyl)acrylic acid] | ++ (++ = a single % value ≧ 40%) | ≤ 100 | ≥ 40 | ≤ 100
CC/C(=C(/c1ccc(/C=C/C(=O)O)cc1)c1ccc2[nH]ncc2c1)c1cccc(Oc2cccc(S(C)(=O)=O)c2)c1 [Compound 321, (E)-3-(4-((E)-1-(1H-Indazol-5-yl)-2-(3-(3-(methylsulfonyl)phenoxy)phenyl)but-1-en-1-yl)phenyl)acrylic acid] | ++ (++ = a single % value ≧ 40%) | ≤ 100 | ≥ 40 | ≤ 100
CC/C(=C(/c1ccc(/C=C/C(=O)O)cc1)c1ccc2[nH]ncc2c1)c1ccc(Oc2ccccc2)c(C)c1 [Compound 320, (E)-3-(4-((E)-1-(1H-Indazol-5-yl)-2-(3-methyl-4-phenoxyphenyl)but-1-en-1-yl)phenyl)acrylic acid] | ++ (++ = a single % value ≧ 40%) | ≤ 100 | ≥ 40 | ≤ 100
CC/C(=C(/c1ccc(/C=C/C(=O)O)cc1)c1ccc2[nH]ncc2c1)c1cccc(Oc2cnccn2)c1 [Compound 371, (E)-3-(4-((E)-1-(1H-Indazol-5-yl)-2-(3-(pyrazin-2-yloxy)phenyl)but-1-en-1-yl)phenyl)acrylic acid] | ++ (++ = a single % value ≧ 40%) | ≤ 100 | ≥ 40 | ≤ 100
CC/C(=C(/c1ccc(/C=C/C(=O)O)cc1)c1ccc2[nH]ncc2c1F)c1cccc(OC2CCN(C)CC2)c1 [Compound 343, (E)-3-(4-((E)-1-(4-Fluoro-1H-indazol-5-yl)-2-(3-((1-methylpiperidin-4-yl)oxy)phenyl)but-1-en-1-yl)phenyl)acrylic acid] | ++ (++ = a single % value ≧ 40%) | > 100 | ≥ 40 | > 100
CC/C(=C(/c1ccc(/C=C/C(=O)O)cc1)c1ccc2[nH]ncc2c1)c1cccc2occc12 [Compound 96, (E)-3-(4-((E)-2-(Benzofuran-4-yl)-1-(1H-indazol-5-yl)but-1-en-1-yl)phenyl)acrylic acid] | ++ (++ = a single % value ≧ 40%) | ≤ 100 | ≥ 40 | ≤ 100
CC/C(=C(/c1ccc(/C=C/C(=O)O)cc1)c1ccc2[nH]ncc2c1)c1cccc(Oc2ccc(S(C)(=O)=O)cc2)c1 [Compound 373, (E)-3-(4-((E)-1-(1H-Indazol-5-yl)-2-(3-(4-(methylsulfonyl)phenoxy)phenyl)but-1-en-1-yl)phenyl)acrylic acid] | ++ (++ = a single % value ≧ 40%) | ≤ 100 | ≥ 40 | ≤ 100
CC/C(=C(/c1ccc(/C=C/C(=O)O)cc1)c1ccc2c[nH]c(=O)cc2c1)c1ccccc1 [Compound 90, (E)-3-(4-((E)-1-(3-Oxo-2,3-dihydroisoquinolin-6-yl)-2-phenylbut-1-en-1-yl)phenyl)acrylic acid] | ++ (++ = a single % value ≧ 40%) | > 100 | ≥ 40 | > 100
CC/C(=C(/c1ccc(/C=C/C(=O)O)cc1)c1ccc2[nH]nc(F)c2c1)c1ccncc1Cl [Compound 306, (E)-3-(4-((E)-2-(3-Chloropyridin-4-yl)-1-(3-fluoro-1H-indazol-5-yl)but-1-en-1-yl)phenyl)acrylic acid] | ++ (++ = a single % value ≧ 40%) | ≤ 100 | ≥ 40 | ≤ 100
CC/C(=C(/c1ccc(/C=C/C(=O)O)cc1)c1ccc2[nH]ncc2c1)c1ccsc1C [Compound 214, (E)-3-(4-((E)-1-(1H-Indazol-5-yl)-2-(2-methylthiophen-3-yl)but-1-en-1-yl)phenyl)acrylic acid] | ++ (++ = a single % value ≧ 40%) | ≤ 100 | ≥ 40 | ≤ 100
CC/C(=C(/c1ccc(/C=C/C(=O)O)cc1)c1ccn2cncc2c1)c1ccccc1 [Compound 135, (E)-3-(4-((E)-1-(Imidazo[1,5-a]pyridin-7-yl)-2-phenylbut-1-en-1-yl)phenyl)acrylic acid] | + (+ = a single % value < 40%) | ≤ 100 | ≥ 40 | > 100
CC/C(=C(/c1ccc(/C=C/C(=O)O)cc1)c1ccc2[nH]nnc2c1)c1ccc(F)cc1Cl [Compound 72, (E)-3-(4-((E)-1-(1H-Benzo[d][1,2,3]triazol-5-yl)-2-(2-chloro-4-fluorophenyl)but-1-en-1-yl)phenyl)acrylic acid] | ++ (++ = a single % value ≧ 40%) | ≤ 100 | ≥ 40 | ≤ 100
